ChEMBL document CHEMBL3872279, “Design, synthesis and biological evaluation of novel 4-(2-fluorophenoxy)quinoline derivatives as selective c-Met inhibitors” (Bioorg Med Chem, 2017)

How the values were obtained:
[1] = Cytotoxicity against human MKN45 cells after 72 hrs by MTT assay; settings: MKN-45, 72 h
[2] = Cytotoxicity against human HT-29 cells after 72 hrs by MTT assay; settings: HT-29, 72 h
[3] = Cytotoxicity against human A549 cells after 72 hrs by MTT assay; settings: A549, 72 h
[4] = biological target: Epidermal growth factor receptor (Homo sapiens, UniProt P00533); assay: Inhibition of EGFR (unknown origin)
[5] = test system: MKN-45; assay: Potency index, ratio of foretinib IC50 to compound IC50 for human MKN45 cells; type: functional
[6] = biological target: Hepatocyte growth factor receptor (Homo sapiens, UniProt P08581); assay: Inhibition of c-MET (unknown origin) using poly (Glu, Tyr) 4:1 as substrate after 30 mins by HTRF assay
[7] = biological target: Vascular endothelial growth factor receptor 2 (Homo sapiens, UniProt P35968); assay: Inhibition of VEGFR-2 (unknown origin)
[8] = biological target: Mast/stem cell growth factor receptor Kit (Homo sapiens, UniProt P10721); assay: Inhibition of c-KIT (unknown origin)
[9] = biological target: ALK tyrosine kinase receptor (Homo sapiens, UniProt Q9UM73); assay: Inhibition of ALK (unknown origin)
[10] = biological target: T1, Receptor-type tyrosine-protein kinase FLT3 (Homo sapiens, UniProt P36888); assay: Inhibition of FLT3 (unknown origin)
T1 sequence (P36888 whole entry): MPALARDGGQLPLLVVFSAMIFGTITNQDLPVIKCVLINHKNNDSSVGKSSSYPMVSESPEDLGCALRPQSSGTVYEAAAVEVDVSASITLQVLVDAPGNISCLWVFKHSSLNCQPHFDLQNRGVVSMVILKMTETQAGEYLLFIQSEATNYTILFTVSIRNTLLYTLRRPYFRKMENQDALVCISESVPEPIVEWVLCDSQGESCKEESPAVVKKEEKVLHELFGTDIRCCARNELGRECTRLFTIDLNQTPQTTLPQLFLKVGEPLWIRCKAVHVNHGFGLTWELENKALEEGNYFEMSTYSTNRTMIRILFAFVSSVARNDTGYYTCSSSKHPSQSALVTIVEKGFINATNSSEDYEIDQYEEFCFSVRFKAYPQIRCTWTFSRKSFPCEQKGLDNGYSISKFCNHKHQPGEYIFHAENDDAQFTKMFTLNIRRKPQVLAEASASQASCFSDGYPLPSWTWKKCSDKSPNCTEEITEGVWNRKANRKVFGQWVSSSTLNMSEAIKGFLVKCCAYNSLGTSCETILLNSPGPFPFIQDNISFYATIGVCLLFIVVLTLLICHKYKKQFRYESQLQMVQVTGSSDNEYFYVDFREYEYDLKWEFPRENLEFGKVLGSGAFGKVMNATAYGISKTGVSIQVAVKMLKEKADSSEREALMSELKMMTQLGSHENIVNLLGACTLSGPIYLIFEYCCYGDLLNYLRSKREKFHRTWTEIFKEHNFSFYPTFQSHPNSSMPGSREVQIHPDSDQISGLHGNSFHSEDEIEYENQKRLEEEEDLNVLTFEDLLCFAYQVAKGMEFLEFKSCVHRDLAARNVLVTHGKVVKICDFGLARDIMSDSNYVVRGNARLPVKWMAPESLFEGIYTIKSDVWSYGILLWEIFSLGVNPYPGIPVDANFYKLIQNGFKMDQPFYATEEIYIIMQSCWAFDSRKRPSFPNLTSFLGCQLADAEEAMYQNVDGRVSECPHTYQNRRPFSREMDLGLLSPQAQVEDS

[11] = test system: HT-29; assay: Potency index, ratio of foretinib IC50 to compound IC50 for human HT-29 cells; type: functional
[12] = test system: A549; assay: Potency index, ratio of foretinib IC50 to compound IC50 for human A549 cells; type: functional

ALK tyrosine kinase receptor, sequence (Q9UM73 whole entry): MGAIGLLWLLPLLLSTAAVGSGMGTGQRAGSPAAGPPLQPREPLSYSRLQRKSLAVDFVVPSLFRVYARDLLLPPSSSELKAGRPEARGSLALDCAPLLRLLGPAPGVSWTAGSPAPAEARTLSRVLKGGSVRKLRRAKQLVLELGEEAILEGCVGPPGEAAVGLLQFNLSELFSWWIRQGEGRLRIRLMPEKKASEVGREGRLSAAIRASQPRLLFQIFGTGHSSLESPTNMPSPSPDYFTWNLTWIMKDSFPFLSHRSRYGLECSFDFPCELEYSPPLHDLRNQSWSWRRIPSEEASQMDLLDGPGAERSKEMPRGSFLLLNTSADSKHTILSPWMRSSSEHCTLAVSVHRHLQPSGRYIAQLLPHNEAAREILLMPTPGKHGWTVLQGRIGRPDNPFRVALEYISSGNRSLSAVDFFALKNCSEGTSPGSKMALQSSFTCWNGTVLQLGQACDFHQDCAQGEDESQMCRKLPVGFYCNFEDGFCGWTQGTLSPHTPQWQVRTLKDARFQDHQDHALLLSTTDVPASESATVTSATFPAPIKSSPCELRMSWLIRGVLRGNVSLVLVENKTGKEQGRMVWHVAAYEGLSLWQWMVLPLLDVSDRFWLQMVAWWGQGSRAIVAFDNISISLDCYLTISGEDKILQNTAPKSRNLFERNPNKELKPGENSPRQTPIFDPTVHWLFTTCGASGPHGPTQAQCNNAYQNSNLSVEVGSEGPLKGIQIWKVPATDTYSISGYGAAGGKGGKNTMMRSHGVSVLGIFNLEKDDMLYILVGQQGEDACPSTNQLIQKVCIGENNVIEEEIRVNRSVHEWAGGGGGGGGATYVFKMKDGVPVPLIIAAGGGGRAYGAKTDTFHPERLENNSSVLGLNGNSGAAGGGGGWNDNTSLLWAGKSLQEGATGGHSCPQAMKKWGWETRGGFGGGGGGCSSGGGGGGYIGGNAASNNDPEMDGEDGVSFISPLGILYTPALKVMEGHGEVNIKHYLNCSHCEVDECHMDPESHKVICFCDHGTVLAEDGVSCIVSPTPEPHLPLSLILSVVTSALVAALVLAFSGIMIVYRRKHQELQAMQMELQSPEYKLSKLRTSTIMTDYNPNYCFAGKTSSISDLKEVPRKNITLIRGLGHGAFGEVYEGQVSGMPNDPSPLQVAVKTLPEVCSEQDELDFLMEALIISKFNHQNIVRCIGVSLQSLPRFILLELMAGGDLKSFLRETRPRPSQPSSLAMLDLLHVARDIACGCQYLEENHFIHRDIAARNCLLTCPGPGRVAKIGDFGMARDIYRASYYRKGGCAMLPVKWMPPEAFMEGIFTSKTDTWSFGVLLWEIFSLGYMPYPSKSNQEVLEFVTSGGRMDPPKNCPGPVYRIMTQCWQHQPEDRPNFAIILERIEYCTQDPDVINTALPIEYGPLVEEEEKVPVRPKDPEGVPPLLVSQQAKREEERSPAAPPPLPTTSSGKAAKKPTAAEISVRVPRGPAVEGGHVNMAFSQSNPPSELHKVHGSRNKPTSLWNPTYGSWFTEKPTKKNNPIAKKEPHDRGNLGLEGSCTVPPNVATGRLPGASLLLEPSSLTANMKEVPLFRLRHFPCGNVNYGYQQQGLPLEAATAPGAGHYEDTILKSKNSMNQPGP
Epidermal growth factor receptor, sequence (P00533 whole entry): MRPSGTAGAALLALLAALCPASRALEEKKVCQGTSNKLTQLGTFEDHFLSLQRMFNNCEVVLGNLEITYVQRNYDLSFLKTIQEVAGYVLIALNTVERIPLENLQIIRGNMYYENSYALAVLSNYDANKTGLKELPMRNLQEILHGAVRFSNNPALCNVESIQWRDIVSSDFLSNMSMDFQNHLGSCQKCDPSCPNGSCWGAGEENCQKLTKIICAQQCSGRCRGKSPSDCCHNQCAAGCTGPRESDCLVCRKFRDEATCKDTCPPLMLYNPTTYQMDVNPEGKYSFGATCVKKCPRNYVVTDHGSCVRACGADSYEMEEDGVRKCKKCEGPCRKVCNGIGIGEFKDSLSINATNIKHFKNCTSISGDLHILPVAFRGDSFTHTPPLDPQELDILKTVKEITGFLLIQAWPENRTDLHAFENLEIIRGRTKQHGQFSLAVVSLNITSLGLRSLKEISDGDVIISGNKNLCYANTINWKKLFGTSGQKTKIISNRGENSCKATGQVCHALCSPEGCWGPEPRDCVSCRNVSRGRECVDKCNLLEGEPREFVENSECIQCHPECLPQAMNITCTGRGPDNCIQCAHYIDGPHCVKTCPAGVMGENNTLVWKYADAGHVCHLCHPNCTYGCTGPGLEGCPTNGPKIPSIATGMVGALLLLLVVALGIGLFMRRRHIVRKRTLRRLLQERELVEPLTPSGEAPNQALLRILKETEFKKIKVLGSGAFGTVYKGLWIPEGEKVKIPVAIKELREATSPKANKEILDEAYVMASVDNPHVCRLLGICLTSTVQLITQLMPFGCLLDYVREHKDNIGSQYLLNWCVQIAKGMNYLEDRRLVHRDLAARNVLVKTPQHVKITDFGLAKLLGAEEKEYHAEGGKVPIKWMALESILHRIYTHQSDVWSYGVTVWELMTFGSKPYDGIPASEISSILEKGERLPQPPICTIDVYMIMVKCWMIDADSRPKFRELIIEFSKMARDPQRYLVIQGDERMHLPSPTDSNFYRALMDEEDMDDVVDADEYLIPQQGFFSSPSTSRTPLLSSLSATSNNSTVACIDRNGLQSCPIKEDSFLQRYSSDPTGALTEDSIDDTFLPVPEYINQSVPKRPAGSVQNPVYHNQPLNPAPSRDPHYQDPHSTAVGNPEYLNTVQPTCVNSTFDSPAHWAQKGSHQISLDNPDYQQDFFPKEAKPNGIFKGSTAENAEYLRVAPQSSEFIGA
Vascular endothelial growth factor receptor 2, sequence (P35968 whole entry): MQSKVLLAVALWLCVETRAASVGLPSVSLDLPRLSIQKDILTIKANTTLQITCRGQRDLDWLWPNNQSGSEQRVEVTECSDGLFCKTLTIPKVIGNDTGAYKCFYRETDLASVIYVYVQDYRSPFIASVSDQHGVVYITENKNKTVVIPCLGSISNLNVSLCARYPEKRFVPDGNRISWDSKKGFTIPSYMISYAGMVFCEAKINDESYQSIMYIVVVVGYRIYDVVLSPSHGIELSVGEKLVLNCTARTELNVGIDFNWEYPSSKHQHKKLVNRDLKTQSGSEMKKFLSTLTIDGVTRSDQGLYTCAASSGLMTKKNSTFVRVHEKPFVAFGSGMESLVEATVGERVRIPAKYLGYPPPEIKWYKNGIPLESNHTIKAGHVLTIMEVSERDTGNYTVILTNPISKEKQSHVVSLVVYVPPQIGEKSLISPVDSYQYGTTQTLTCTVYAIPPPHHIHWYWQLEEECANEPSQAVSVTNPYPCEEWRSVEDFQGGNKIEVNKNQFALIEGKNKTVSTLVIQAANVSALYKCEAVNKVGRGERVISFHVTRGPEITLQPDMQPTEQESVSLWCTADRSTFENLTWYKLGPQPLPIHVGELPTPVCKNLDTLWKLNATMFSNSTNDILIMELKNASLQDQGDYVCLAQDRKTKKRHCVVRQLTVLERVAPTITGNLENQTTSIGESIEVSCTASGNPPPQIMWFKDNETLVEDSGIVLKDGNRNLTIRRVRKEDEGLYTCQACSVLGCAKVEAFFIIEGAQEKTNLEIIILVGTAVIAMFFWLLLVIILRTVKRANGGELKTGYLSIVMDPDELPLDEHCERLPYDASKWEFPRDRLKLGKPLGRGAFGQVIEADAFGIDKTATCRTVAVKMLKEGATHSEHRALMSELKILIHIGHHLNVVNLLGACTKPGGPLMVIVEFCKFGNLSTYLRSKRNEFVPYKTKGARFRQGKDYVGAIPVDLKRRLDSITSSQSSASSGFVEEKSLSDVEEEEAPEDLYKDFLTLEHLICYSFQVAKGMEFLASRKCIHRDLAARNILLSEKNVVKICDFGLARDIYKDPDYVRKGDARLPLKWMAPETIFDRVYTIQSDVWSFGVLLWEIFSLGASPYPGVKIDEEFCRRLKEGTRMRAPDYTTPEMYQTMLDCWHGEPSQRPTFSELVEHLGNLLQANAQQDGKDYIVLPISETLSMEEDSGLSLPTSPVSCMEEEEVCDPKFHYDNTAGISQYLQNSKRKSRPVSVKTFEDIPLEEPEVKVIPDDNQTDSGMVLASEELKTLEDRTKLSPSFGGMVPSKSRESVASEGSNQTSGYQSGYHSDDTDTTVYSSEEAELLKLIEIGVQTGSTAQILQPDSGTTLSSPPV

Row | Compound | IC50 [1] [nM] | IC50 [2] [nM] | IC50 [3] [nM] | also measured
1 | COc1cc2c(Oc3ccc(NC(=O)/C=C/S(=O)(=O)c4ccccc4OC)cc3F)ccnc2cc1OCCCN1CCN(C)CC1 | 430 | 270 | 320 | 
2 | COc1cc2c(Oc3ccc(NC(=O)c4cn(-c5ccc(Cl)cc5)cn4)cc3F)ccnc2cc1OCCCN1CCN(C)CC1 | 4110 | 1350 | 5200 | 
3 | COc1cc2c(Oc3ccc(NC(=O)c4cn(-c5ccccc5OC)cn4)cc3F)ccnc2cc1OCCCN1CCOCC1 | 320 | 200 | 150 | 
4 | COc1cc2c(Oc3ccc(NC(=O)/C=C/S(=O)(=O)c4ccccc4OC)cc3F)ccnc2cc1OCCCN1CCCCC1 | 980 | 660 | 470 | 
5 | COc1cc2c(Oc3ccc(NC(=O)/C=C/S(=O)(=O)c4ccc(C)cc4)cc3F)ccnc2cc1OCCCN1CCN(C)CC1 | 2510 | 2070 | 1510 | 
6 | COc1cc2c(Oc3ccc(NC(=O)c4cn(-c5ccccc5OC)cn4)cc3F)ccnc2cc1OCCCN1CCCCC1 | 260 | 100 | 120 | 
7 | COc1cc2c(Oc3ccc(NC(=O)c4cn(-c5ccc(Cl)cc5)cn4)cc3F)ccnc2cc1OCCCN1CCCCC1 | 5910 | 2780 | 6560 | 
8 | COc1cc2c(Oc3ccc(NC(=O)c4cn(-c5cc(C)ccc5C)cn4)cc3F)ccnc2cc1OCCCN1CCN(C)CC1 | 650 | 470 | 350 | 
9 | COc1ccc(S(=O)(=O)/C=C/C(=O)Nc2ccc(Oc3ccnc4cc(OCCCN5CCCCC5)c(OC)cc34)c(F)c2)cc1 | 3580 | 1650 | 2220 | 
10 | COc1cc2c(Oc3ccc(NC(=O)c4cn(-c5ccccc5OC(F)(F)F)cn4)cc3F)ccnc2cc1OCCCN1CCCCC1 | 190 | 250 | 270 | 
11 | COc1cc2c(Oc3ccc(NC(=O)c4cn(-c5ccccc5OC(F)(F)F)cn4)cc3F)ccnc2cc1OCCCN1CCOCC1 | 180 | 430 | 520 | 
12 | COc1cc2c(Oc3ccc(NC(=O)/C=C/S(=O)(=O)c4ccccc4F)cc3F)ccnc2cc1OCCCN1CCN(C)CC1 | 280 | 150 | 150 | 
13 | COc1cc2c(Oc3ccc(NC(=O)/C=C/S(=O)(=O)c4ccccc4OC)cc3F)ccnc2cc1OCCCN1CCC(C)CC1 | 2030 | 1960 | 3000 | 
14 | COc1ccc(S(=O)(=O)/C=C/C(=O)Nc2ccc(Oc3ccnc4cc(OCCCN5CCN(C)CC5)c(OC)cc34)c(F)c2)cc1 | 2770 | 1660 | 1870 | 
15 | COc1cc2c(Oc3ccc(NC(=O)c4cn(-c5ccc(Cl)cc5Cl)cn4)cc3F)ccnc2cc1OCCCN1CCCCC1 | 6240 | 4300 | 7490 | 
16 | COc1cc2c(Oc3ccc(NC(=O)c4cn(-c5cc(C)ccc5C)cn4)cc3F)ccnc2cc1OCCCN1CCCCC1 | 830 | 580 | 510 | 
17 | COc1cc2c(Oc3ccc(NC(=O)c4cn(-c5ccccc5OC)cn4)cc3F)ccnc2cc1OCCCN1CCN(C)CC1 | 220 | 80 | 70 | IC50 [4]: 690 nM; Ratio IC50 [5]: 1.4; IC50 [6]: 1.1 nM; IC50 [7]: 589 nM; IC50 [8]: 270 nM; IC50 [9]: > 3330 nM; IC50 [10]: 400 nM; Ratio IC50 [11]: 3.1; Ratio IC50 [12]: 2.1
18 | COc1cc2c(Oc3ccc(NC(=O)c4cn(-c5ccc(Cl)cc5Cl)cn4)cc3F)ccnc2cc1OCCCN1CCN(C)CC1 | 4840 | 3050 | 3850 | 
19 | COc1cc2c(Oc3ccc(NC(=O)/C=C/S(=O)(=O)c4ccc(C)cc4)cc3F)ccnc2cc1OCCCN1CCCCC1 | 1690 | 4230 | 2310 | 
20 | COc1cc2c(Oc3ccc(NC(=O)/C=C/S(=O)(=O)c4ccccc4F)cc3F)ccnc2cc1OCCCN1CCC(C)CC1 | 840 | 760 | 410 | 
21 | COc1cc2c(Oc3ccc(NC(=O)/C=C/S(=O)(=O)c4ccccc4F)cc3F)ccnc2cc1OCCCN1CCOCC1 | 420 | 600 | 210 | 
22 | COc1cc2c(Oc3ccc(NC(=O)c4cn(-c5ccccc5OC(F)(F)F)cn4)cc3F)ccnc2cc1OCCCN1CCC(C)CC1 | 150 | 690 | 760 | 
23 | COc1cc2c(Oc3ccc(NC(=O)/C=C/S(=O)(=O)c4ccccc4OC)cc3F)ccnc2cc1OCCCN1CCOCC1 | 1470 | 1180 | 770 | 
24 | COc1cc2c(Oc3ccc(NC(=O)c4cn(-c5ccccc5OC)cn4)cc3F)ccnc2cc1OCCCN1CCC(C)CC1 | 600 | 300 | 400 | 
25 | COc1cc2c(Oc3ccc(NC(=O)c4cn(-c5ccccc5OC(F)(F)F)cn4)cc3F)ccnc2cc1OCCCN1CCN(C)CC1 | 120 | 170 | 130 | 
26 | COc1cc2c(Oc3ccc(NC(=O)c4cn(-c5cc(C)ccc5C)cn4)cc3F)ccnc2cc1OCCCN1CCC(C)CC1 | 5650 | 2220 | 7420 | 
27 | COc1cc2c(Oc3ccc(NC(=O)c4cn(-c5cc(C)ccc5C)cn4)cc3F)ccnc2cc1OCCCN1CCOCC1 | 3200 | 1960 | 5480 | 
